In article PMC5218480 (PLoS ONE, 2017):

Tested on: MV-4-11 cells
Experiment: Gene expression microarray analysis (Affymetrix PrimeView) and GSEA
Type: cell-based, human
Design: RFU PODN (11730768_x_at) / Fold change /veh PODN (11730768_x_at) / RFU LINC00158 (11744669_a_at) / Fold change /veh LINC00158 (11744669_a_at) / RFU DUSP10 (11751237_a_at) / Fold change /veh DUSP10 (11751237_a_at) / RFU ID3 (11757404_x_at) / Fold change /veh ID3 (11757404_x_at) / RFU PLEKHG5 (11737974_s_at) / Fold change /veh PLEKHG5 (11737974_s_at) / RFU LRRC4B (11730491_at) / Fold change /veh LRRC4B (11730491_at) / RFU GIMAP4 (11747438_a_at) / Fold change /veh GIMAP4 (11747438_a_at) / RFU KRT8 (11758183_x_at) / Fold change /veh KRT8 (11758183_x_at) / RFU CNN1 (11734310_a_at) / Fold change /veh CNN1 (11734310_a_at) / RFU VPS37D (11726825_at) / Fold change /veh VPS37D (11726825_at) / RFU C10orf10 (11716522_x_at) / Fold change /veh C10orf10 (11716522_x_at) / RFU KIR2DL2 /// KIR2DL4 /// KIR2DL5A /// KIR2DL5B /// KIR2DS1 /// KIR2DS2 /// KIR2DS3 /// KIR2DS4 /// KIR3DL3 /// KIR3DL3 /// KIR3DS1 (11738374_at) / Fold change /veh KIR2DL2 /// KIR2DL4 /// KIR2DL5A /// KIR2DL5B /// KIR2DS1 /// KIR2DS2 /// KIR2DS3 /// KIR2DS4 /// KIR3DL3 /// KIR3DL3 /// KIR3DS1 (11738374_at) / RFU C1QL1 (11718748_at) / Fold change /veh C1QL1 (11718748_at) / RFU TMPRSS4 (11747572_a_at) / Fold change /veh TMPRSS4 (11747572_a_at) / RFU HAMP (11756126_x_at) / Fold change /veh HAMP (11756126_x_at) / RFU RNFT2 (11725882_a_at) / Fold change /veh RNFT2 (11725882_a_at) / RFU NR4A2 (11747474_a_at) / Fold change /veh NR4A2 (11747474_a_at) / RFU ABCC12 (11746883_a_at) / Fold change /veh ABCC12 (11746883_a_at) / RFU TMEM136 (11760407_x_at) / Fold change /veh TMEM136 (11760407_x_at) / RFU CLDN22 /// WWC2 (11732394_at) / Fold change /veh CLDN22 /// WWC2 (11732394_at) / RFU HLA-DPB1 (11760878_x_at) / Fold change /veh HLA-DPB1 (11760878_x_at) / RFU SPINT1 (11716480_a_at) / Fold change /veh SPINT1 (11716480_a_at) / RFU GAP43 (11754022_s_at) / Fold change /veh GAP43 (11754022_s_at) / RFU A4GNT (11735810_at) / Fold change /veh A4GNT (11735810_at) / RFU PRB3 (11715151_x_at) / Fold change /veh PRB3 (11715151_x_at) / RFU TUBB4B (11761932_at) / Fold change /veh TUBB4B (11761932_at) / RFU CAPN14 (11732068_a_at) / Fold change /veh CAPN14 (11732068_a_at) / RFU TMCC2 (11721928_a_at) / Fold change /veh TMCC2 (11721928_a_at) / RFU IRGQ (11745062_a_at) / Fold change /veh IRGQ (11745062_a_at) / RFU FAM174B (11720279_a_at) / Fold change /veh FAM174B (11720279_a_at) / RFU TMPRSS4 (11748680_a_at) / Fold change /veh TMPRSS4 (11748680_a_at) / RFU FAM212B (11763350_a_at) / Fold change /veh FAM212B (11763350_a_at) / RFU PLEKHG5 (11743358_a_at) / Fold change /veh PLEKHG5 (11743358_a_at) / RFU ZSCAN30 (11745921_a_at) / Fold change /veh ZSCAN30 (11745921_a_at) / RFU CMKLR1 (11741424_a_at) / Fold change /veh CMKLR1 (11741424_a_at) / RFU LOC101060620 /// MAPK8IP1 (11723275_at) / Fold change /veh LOC101060620 /// MAPK8IP1 (11723275_at) / RFU SPTSSB (11747773_x_at) / Fold change /veh SPTSSB (11747773_x_at) / RFU PRSS12 (11739890_at) / Fold change /veh PRSS12 (11739890_at) / RFU BIN1 (11741810_x_at) / Fold change /veh BIN1 (11741810_x_at) / RFU WNT11 (11732464_a_at) / Fold change /veh WNT11 (11732464_a_at) / RFU C10orf10 (11716521_a_at) / Fold change /veh C10orf10 (11716521_a_at) / RFU C5orf56 (11738089_at) / Fold change /veh C5orf56 (11738089_at) / RFU CYB561 (11721691_x_at) / Fold change /veh CYB561 (11721691_x_at) / RFU ANKRD19P (11752326_a_at) / Fold change /veh ANKRD19P (11752326_a_at) / RFU OR2T12 /// OR2T33 /// OR2T8 (11738714_s_at) / Fold change /veh OR2T12 /// OR2T33 /// OR2T8 (11738714_s_at) / RFU VCAN (11748164_a_at) / Fold change /veh VCAN (11748164_a_at) / RFU JSRP1 (11732532_at) / Fold change /veh JSRP1 (11732532_at) / RFU KRTAP10-11 (11738290_x_at) / Fold change /veh KRTAP10-11 (11738290_x_at) / RFU MYO3A (11730013_a_at) / Fold change /veh MYO3A (11730013_a_at) / RFU EBF3 (11725865_a_at) / Fold change /veh EBF3 (11725865_a_at) / RFU CAMK2N1 (11719241_x_at) / Fold change /veh CAMK2N1 (11719241_x_at) / RFU C5orf56 (11738088_a_at) / Fold change /veh C5orf56 (11738088_a_at) / RFU OLFML3 (11715873_a_at) / Fold change /veh OLFML3 (11715873_a_at) / RFU LOC100653217 /// NTM (11731650_a_at) / Fold change /veh LOC100653217 /// NTM (11731650_a_at) / RFU MAPK11 (11762145_a_at) / Fold change /veh MAPK11 (11762145_a_at) / RFU FIZ1 (11724087_x_at) / Fold change /veh FIZ1 (11724087_x_at) / RFU OASL (11726364_x_at) / Fold change /veh OASL (11726364_x_at) / RFU SOX15 (11748057_x_at) / Fold change /veh SOX15 (11748057_x_at) / RFU CD79A (11719716_a_at) / Fold change /veh CD79A (11719716_a_at) / RFU HIST1H1D (11736915_at) / Fold change /veh HIST1H1D (11736915_at) / RFU CASKIN2 (11723855_a_at) / Fold change /veh CASKIN2 (11723855_a_at) / RFU LOC730098 (11760151_x_at) / Fold change /veh LOC730098 (11760151_x_at) / RFU OR4N2 (11742367_at) / Fold change /veh OR4N2 (11742367_at) / RFU PRRT2 (11749266_a_at) / Fold change /veh PRRT2 (11749266_a_at) / RFU SNX32 (11753110_a_at) / Fold change /veh SNX32 (11753110_a_at) / RFU CDHR5 (11726645_a_at) / Fold change /veh CDHR5 (11726645_a_at) / RFU RCAN1 (11760418_a_at) / Fold change /veh RCAN1 (11760418_a_at) / RFU FAM167A (11723789_a_at) / Fold change /veh FAM167A (11723789_a_at) / RFU FAM26E (11764081_at) / Fold change /veh FAM26E (11764081_at) / RFU ISYNA1 (11749810_s_at) / Fold change /veh ISYNA1 (11749810_s_at) / RFU ACY1 (11761880_at) / Fold change /veh ACY1 (11761880_at) / RFU 11764098_at / Fold change /veh 11764098_at / RFU SAMD14 (11745864_x_at) / Fold change /veh SAMD14 (11745864_x_at) / RFU NPB (11741838_a_at) / Fold change /veh NPB (11741838_a_at) / RFU TMPRSS6 (11731388_a_at) / Fold change /veh TMPRSS6 (11731388_a_at) / RFU KRTAP10-2 (11738614_at) / Fold change /veh KRTAP10-2 (11738614_at) / RFU ARHGAP8 /// PRR5-ARHGAP8 (11727945_x_at) / Fold change /veh ARHGAP8 /// PRR5-ARHGAP8 (11727945_x_at) / RFU KRTAP5-7 /// NADSYN1 (11734609_at) / Fold change /veh KRTAP5-7 /// NADSYN1 (11734609_at) / RFU RASL12 (11751679_a_at) / Fold change /veh RASL12 (11751679_a_at) / RFU CDKN2B (11736163_a_at) / Fold change /veh CDKN2B (11736163_a_at) / RFU PRF1 (11729649_at) / Fold change /veh PRF1 (11729649_at) / RFU, ZNF638 /// ZNF638-IT1 / Fold change vs veh, ZNF638 /// ZNF638-IT1 / RFU, PANK3 / Fold change vs veh, PANK3 / RFU, SH3YL1 / Fold change vs veh, SH3YL1 / RFU, ZEB2 / Fold change vs veh, ZEB2 / RFU, NRIP1 / Fold change vs veh, NRIP1 / RFU, PTTG1IP / Fold change vs veh, PTTG1IP / RFU, CAPN2 / Fold change vs veh, CAPN2 / RFU, MED14 / Fold change vs veh, MED14 / RFU, SNORA58 / Fold change vs veh, SNORA58 / RFU, C1orf63 / Fold change vs veh, C1orf63 / RFU, LRRFIP1 / Fold change vs veh, LRRFIP1 / RFU, NDUFAF7 / Fold change vs veh, NDUFAF7 / RFU, SLC12A2 / Fold change vs veh, SLC12A2 / RFU, IBTK / Fold change vs veh, IBTK / RFU, ESF1 / Fold change vs veh, ESF1 / Fold change vs veh, TMEM50B / RFU, TAOK1 / Fold change vs veh, TAOK1 / RFU, ACBD3 / Fold change vs veh, ACBD3 / RFU, TMA16 / Fold change vs veh, TMA16 / RFU, RWDD3 / Fold change vs veh, RWDD3 / RFU, BCAT1 / Fold change vs veh, BCAT1 / RFU, EDEM3 / Fold change vs veh, EDEM3 / RFU, TMEM33 / Fold change vs veh, TMEM33 / RFU, WDR75 / Fold change vs veh, WDR75 / RFU, AHCTF1 / Fold change vs veh, AHCTF1 / RFU, TFRC / Fold change vs veh, TFRC / RFU, ZDHHC17 / Fold change vs veh, ZDHHC17 / RFU, NOM1 / Fold change vs veh, NOM1 / RFU, ARL8B / Fold change vs veh, ARL8B / RFU, ZBTB11 / Fold change vs veh, ZBTB11 / RFU, TAMM41 / Fold change vs veh, TAMM41 / RFU, KIAA1704 /// LOC100996395 / Fold change vs veh, KIAA1704 /// LOC100996395 / RFU, ING1 / Fold change vs veh, ING1 / RFU, TRMT61B / Fold change vs veh, TRMT61B / RFU, FUBP3 / Fold change vs veh, FUBP3 / RFU, TP53 / Fold change vs veh, TP53 / RFU, TNKS2 / Fold change vs veh, TNKS2 / RFU, ZFP14 / Fold change vs veh, ZFP14 / RFU, ACTR2 / Fold change vs veh, ACTR2 / RFU, PPP3R1 / Fold change vs veh, PPP3R1 / RFU, PIK3R1 / Fold change vs veh, PIK3R1 / RFU, HNRNPA1 / Fold change vs veh, HNRNPA1 / RFU, RNF170 / Fold change vs veh, RNF170 / RFU, ZNF28 / Fold change vs veh, ZNF28 / RFU, RNGTT / Fold change vs veh, RNGTT / RFU, OGT / Fold change vs veh, OGT / RFU, BRD1 / Fold change vs veh, BRD1 / RFU, MARS / Fold change vs veh, MARS / RFU, ZNF655 / Fold change vs veh, ZNF655 / RFU, FAHD1 / Fold change vs veh, FAHD1 / RFU, BDP1 / Fold change vs veh, BDP1 / RFU, LRRCC1 / Fold change vs veh, LRRCC1 / RFU, ARID1A / Fold change vs veh, ARID1A / RFU, ZNF146 / Fold change vs veh, ZNF146 / RFU, ZNF330 / Fold change vs veh, ZNF330 / RFU, GPN3 / Fold change vs veh, GPN3 / RFU, C9orf123 / Fold change vs veh, C9orf123 / RFU, N4BP2L2 / Fold change vs veh, N4BP2L2 / RFU, ARFIP1 / Fold change vs veh, ARFIP1 / RFU, FAM179B / Fold change vs veh, FAM179B / RFU, BCL10 / Fold change vs veh, BCL10 / RFU, UHRF1BP1L / Fold change vs veh, UHRF1BP1L / RFU, BET1 / Fold change vs veh, BET1 / RFU, CNOT2 / Fold change vs veh, CNOT2 / RFU, ZNF268 / Fold change vs veh, ZNF268 / Fold change vs veh, ZNF507 / RFU, DGCR2 / Fold change vs veh, DGCR2 / RFU, WDSUB1 / Fold change vs veh, WDSUB1 / Fold change vs veh, HSP90B1 /// MIR3652 / RFU, ADSS / Fold change vs veh, ADSS / RFU, GK / Fold change vs veh, GK / RFU, ZNF148 / Fold change vs veh, ZNF148 / RFU, TAF9 / Fold change vs veh, TAF9 / RFU, SLC1A5 / Fold change vs veh, SLC1A5 / RFU, SLMO2 / Fold change vs veh, SLMO2 / RFU, ABCC4 / Fold change vs veh, ABCC4 / RFU, LOC101060439 /// RAP1B / Fold change vs veh, LOC101060439 /// RAP1B / RFU, RFX7 / Fold change vs veh, RFX7 / RFU, GTPBP10 / Fold change vs veh, GTPBP10 / RFU, CNEP1R1 / Fold change vs veh, CNEP1R1 / RFU, BIVM-ERCC5 /// ERCC5 / Fold change vs veh, BIVM-ERCC5 /// ERCC5 / RFU, ILF3 / Fold change vs veh, ILF3 / RFU 11762660_at / Fold change /veh 11762660_at / RFU VCAN (11757783_s_at) / Fold change /veh VCAN (11757783_s_at) / RFU DDX43 (11728927_at) / Fold change /veh DDX43 (11728927_at) / RFU KRT8 (11758188_x_at) / Fold change /veh KRT8 (11758188_x_at) / RFU NKD1 (11759106_at) / Fold change /veh NKD1 (11759106_at) / RFU SRD5A1 (11742802_a_at) / Fold change /veh SRD5A1 (11742802_a_at) / RFU TPSAB1 /// TPSB2 (11721975_s_at) / Fold change /veh TPSAB1 /// TPSB2 (11721975_s_at) / RFU GSTM3 (11746129_a_at) / Fold change /veh GSTM3 (11746129_a_at) / RFU IL23R (11737362_x_at) / Fold change /veh IL23R (11737362_x_at) / RFU TMEM51 (11727254_a_at) / Fold change /veh TMEM51 (11727254_a_at) / RFU PIWIL2 (11732686_x_at) / Fold change /veh PIWIL2 (11732686_x_at) / RFU ORM1 (11744905_x_at) / Fold change /veh ORM1 (11744905_x_at) / RFU CCDC152 (11743942_at) / Fold change /veh CCDC152 (11743942_at) / RFU ECM1 (11717891_a_at) / Fold change /veh ECM1 (11717891_a_at) / RFU IL23R (11748794_a_at) / Fold change /veh IL23R (11748794_a_at) / RFU TNFAIP8L3 (11732012_x_at) / Fold change /veh TNFAIP8L3 (11732012_x_at) / RFU MBOAT4 (11741988_at) / Fold change /veh MBOAT4 (11741988_at) / RFU 11764193_at / Fold change /veh 11764193_at / RFU TMEM53 (11763286_at) / Fold change /veh TMEM53 (11763286_at) / RFU MAGEB2 (11727129_at) / Fold change /veh MAGEB2 (11727129_at) / RFU TMEM200A (11744735_a_at) / Fold change /veh TMEM200A (11744735_a_at) / RFU CCDC152 (11751479_a_at) / Fold change /veh CCDC152 (11751479_a_at) / RFU FAM211A (11726209_a_at) / Fold change /veh FAM211A (11726209_a_at) / RFU RGS16 (11746705_a_at) / Fold change /veh RGS16 (11746705_a_at) / RFU VCAN (11755009_s_at) / Fold change /veh VCAN (11755009_s_at) / RFU RHOB (11743442_s_at) / Fold change /veh RHOB (11743442_s_at) / RFU RGS16 (11720943_a_at) / Fold change /veh RGS16 (11720943_a_at) / RFU RGS16 (11720944_at) / Fold change /veh RGS16 (11720944_at) / RFU, VPS4B / Fold change vs veh, VPS4B / RFU, CREB1 / Fold change vs veh, CREB1 / RFU, DNAJC13 / Fold change vs veh, DNAJC13 / RFU, GNAQ / Fold change vs veh, GNAQ / RFU, CDK5R1 / Fold change vs veh, CDK5R1 / RFU, ZRANB3 / Fold change vs veh, ZRANB3 / RFU, CUL4A / Fold change vs veh, CUL4A / RFU, CCNY / Fold change vs veh, CCNY / RFU, UFL1 / Fold change vs veh, UFL1 / RFU, COG3 / Fold change vs veh, COG3 / RFU, DIAPH2 / Fold change vs veh, DIAPH2 / RFU, SKA2 / Fold change vs veh, SKA2 / RFU, AFF3 / Fold change vs veh, AFF3 / RFU, LMF1 / Fold change vs veh, LMF1 / RFU, IPO11 / Fold change vs veh, IPO11 / RFU, DFFB / Fold change vs veh, DFFB / RFU, FOXP1 / Fold change vs veh, FOXP1 / RFU, CARD8 / Fold change vs veh, CARD8 / RFU, STRN3 / Fold change vs veh, STRN3 / RFU, ADK / Fold change vs veh, ADK / RFU, RASSF2 / Fold change vs veh, RASSF2 / RFU, WIPF1 / Fold change vs veh, WIPF1 / RFU, LARP1B / Fold change vs veh, LARP1B / RFU, RASA1 / Fold change vs veh, RASA1 / RFU, RB1 / Fold change vs veh, RB1 / RFU, PPFIA1 / Fold change vs veh, PPFIA1 / RFU, MAT2A / Fold change vs veh, MAT2A / RFU, CCT5 / Fold change vs veh, CCT5 / RFU, WDR92 / Fold change vs veh, WDR92 / RFU, CUX1 / Fold change vs veh, CUX1 / RFU, TTC7A / Fold change vs veh, TTC7A / RFU, TMEM135 / Fold change vs veh, TMEM135 / RFU, DEPTOR / Fold change vs veh, DEPTOR / RFU, CPM / Fold change vs veh, CPM / RFU, DNAJB6 / Fold change vs veh, DNAJB6 / RFU, CACNA2D3 / Fold change vs veh, CACNA2D3 / RFU, DTX4 / Fold change vs veh, DTX4 / RFU, TFCP2 / Fold change vs veh, TFCP2 / RFU, GMCL1 /// GMCL1P1 / Fold change vs veh, GMCL1 /// GMCL1P1 / RFU, AEBP2 / Fold change vs veh, AEBP2 / RFU, SNHG1 /// SNORD22 /// SNORD25 /// SNORD26 /// SNORD27 /// SNORD28 /// SNORD29 /// SNORD31 / Fold change vs veh, SNHG1 /// SNORD22 /// SNORD25 /// SNORD26 /// SNORD27 /// SNORD28 /// SNORD29 /// SNORD31 / Fold change (Aza/veh), C12orf56 (ProbeSet 11735607_a_at) / Fold change (ACY-1035/veh), C12orf56 (ProbeSet 11735607_a_at) / Fold change (Aza/veh), FGFR1OP (ProbeSet 11751329_s_at) / Fold change (ACY-1035/veh), FGFR1OP (ProbeSet 11751329_s_at) / Fold change (Aza/veh), VPS36 (ProbeSet 11739960_a_at) / Fold change (ACY-1035/veh), VPS36 (ProbeSet 11739960_a_at) / RFU SYPL1 (11715823_x_at) / Fold change /veh SYPL1 (11715823_x_at) / RFU IGFBP7 (11715501_s_at) / Fold change /veh IGFBP7 (11715501_s_at) / RFU REEP3 (11722064_at) / Fold change /veh REEP3 (11722064_at) / RFU IGLL1 (11728026_x_at) / Fold change /veh IGLL1 (11728026_x_at): dose or concentration left out as unconfirmed
Details: ProbeSet 11731461_x_at; LIST D

## Nc1ncn([C@@H]2O[C@H](CO)[C@@H](O)[C@H]2O)c(=O)n1 [azacitidine]
  Fold change vs veh, CPM: 0.79
